Test results reported in ChEMBL document CHEMBL1141884 (Bioorg Med Chem Lett, 2005).

Experiments:
[1] = biological target: Cholinesterase (Homo sapiens, UniProt P06276)
Description: Inhibitory concentration against Butyrylcholinesterase activity

[2] = biological target: T1, Acetylcholinesterase (Homo sapiens, UniProt P22303); test: Inhibitory concentration against Acetylcholinesterase activity
[3] = biological target: T1, Acetylcholinesterase; test: Binding affinity for Acetylcholinesterase
[4] = substrate: COc1ccc(-c2cc3c(c(=O)o2)C[C@@]2(O)[C@@]4(C)CCC(=O)OC(C)(C)[C@@]4(O)CC[C@@]2(C)O3)cc1; test: Michaelis-Menten constant for affinity against Acetylcholinesterase

Chain of Cholinesterase (P06276 whole entry): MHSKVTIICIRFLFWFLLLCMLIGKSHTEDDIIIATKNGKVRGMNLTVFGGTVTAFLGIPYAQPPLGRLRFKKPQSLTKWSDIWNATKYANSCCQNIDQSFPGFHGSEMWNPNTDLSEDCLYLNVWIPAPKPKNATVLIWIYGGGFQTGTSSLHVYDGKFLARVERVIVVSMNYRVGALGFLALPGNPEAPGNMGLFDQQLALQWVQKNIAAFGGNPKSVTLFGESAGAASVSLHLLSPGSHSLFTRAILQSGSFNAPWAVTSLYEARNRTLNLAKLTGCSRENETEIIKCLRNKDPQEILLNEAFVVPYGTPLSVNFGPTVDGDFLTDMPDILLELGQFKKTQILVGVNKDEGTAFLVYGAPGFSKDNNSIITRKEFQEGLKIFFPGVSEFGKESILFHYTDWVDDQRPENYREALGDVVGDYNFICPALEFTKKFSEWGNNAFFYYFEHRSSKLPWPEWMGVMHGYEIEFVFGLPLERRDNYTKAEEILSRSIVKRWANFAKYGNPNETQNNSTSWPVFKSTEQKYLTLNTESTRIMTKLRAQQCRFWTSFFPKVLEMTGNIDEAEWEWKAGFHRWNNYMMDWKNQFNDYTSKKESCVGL

Molecule: COc1ccc(-c2cc3c(c(=O)o2)C[C@@]2(O)[C@@]4(C)C=CC(=O)C(C)(C)[C@@]4(O)CC[C@@]2(C)O3)cc1
- IC50 [1]: > 200 µM
- IC50 [2]: 0.09 µM

Molecule: COc1ccc(-c2cc3c(c(=O)o2)C[C@@]2(O)[C@@]4(C)CCC(=O)C(C)(C)[C@@]4(O)CC[C@@]2(C)O3)cc1
- IC50 [1]: > 200 µM
- IC50 [2]: 0.06 µM

Molecule: COC1=CC(=O)[C@]2(C)[C@]3(O)Cc4c(cc(-c5cc(OC)c(OC)c(OC)c5)oc4=O)O[C@]3(C)CC[C@]2(O)C1(C)C
- IC50 [1]: > 200 µM
- IC50 [2]: 0.42 µM

Molecule: COc1ccc(-c2cc3c(c(=O)o2)C[C@@]2(O)[C@@]4(C)C(=O)[C@@]5(OC)C(=O)O[C@]4(CC[C@@]2(C)O3)C5(C)C)cc1 [TERREULACTONE A]
- IC50 [1]: > 200 µM
- IC50 [2]: 0.23 µM

Molecule: COc1ccc(-c2cc3c(c(=O)o2)C[C@@]2(O)[C@@]4(C)CCC(=O)OC(C)(C)[C@@]4(O)CC[C@@]2(C)O3)cc1
- IC50 [1]: > 500 µM
- Ki [3]: 2.3 µM

B1: Acetylcholinesterase (Homo sapiens), P22303 (protein)
chain: MRPPQCLLHTPSLASPLLLLLLWLLGGGVGAEGREDAELLVTVRGGRLRGIRLKTPGGPVSAFLGIPFAEPPMGPRRFLPPEPKQPWSGVVDATTFQSVCYQYVDTLYPGFEGTEMWNPNRELSEDCLYLNVWTPYPRPTSPTPVLVWIYGGGFYSGASSLDVYDGRFLVQAERTVLVSMNYRVGAFGFLALPGSREAPGNVGLLDQRLALQWVQENVAAFGGDPTSVTLFGESAGAASVGMHLLSPPSRGLFHRAVLQSGAPNGPWATVGMGEARRRATQLAHLVGCPPGGTGGNDTELVACLRTRPAQVLVNHEWHVLPQESVFRFSFVPVVDGDFLSDTPEALINAGDFHGLQVLVGVVKDEGSYFLVYGAPGFSKDNESLISRAEFLAGVRVGVPQVSDLAAEAVVLHYTDWLHPEDPARLREALSDVVGDHNVVCPVAQLAGRLAAQGARVYAYVFEHRASTLSWPLWMGVPHGYEIEFIFGIPLDPSRNYTAEEKIFAQRLMRYWANFARTGDPNEPRDPKAPQWPPYTAGAQQYVSLDLRPLEVRRGLRAQACAFWNRFLPKLLSATDTLDEAERQWKAEFHRWSSYMVHWKNQFDHYSKQDRCSDL
- Km [4]: 20 µM
